Where no end group is shown, it is not given here.
Assays:
Format in all cases: in vivo
HFD-treated male mice [1] = assay: Oral and subcutaneous administration of modified elafin to HFD-treated male mice; conditions: 14 days
Description: FIG. 36. Subcutaneous and oral administration of modified elafin inhibited hyperphagia and hyperglycemia in HFD-treated male mice. (A) Elafin (1 mg/kg) was injected into RD-treated male mice subcutaneously. Tail-vein blood samples were collected for elafin ELISA. This mouse experiment was intended for the determination of basic pharmacokinetics of elafin, but not the determination of physiology of elafin. (B) HFD-treated mice were treated with either oral gavage of Elafin-Eudragit formulation (10 mg/kg) daily or subcutaneous injection of PEG-elafin (3.25 mg/kg) every 48 h for 14 days. Serum elafin levels. (C) Serum leptin levels. (D) Serum IFNγ and IL-1β levels. (E) Daily food consumption. (F) Change in fat mass. (G) Change in body weight over 14 days. (H) Fasting blood glucose levels. Each group consists of 8 mice.
Oral and subcutaneous administration of modified elafin to mice. Eight-week-old male c57BL/6J (JAX #000664) mice were fed with HFD for 8 weeks to induce obesity and hyperglycemia, followed by administration of Elafin-Eudragit formulation (10 mg/kg) via oral gavage daily or subcutaneous injection of polyethylene glycol conjugated (PEGylated) elafin (3.25 mg/kg) every 48 h to mice for 14 days. Oral Elafin-Eudragit formulation was made by Dr. Xingguo Cheng at the Southwest Research Institute (SWRI), Texas. Elafin was coated with Eudragit FS3OD polymer. […] Elafin-Eudragit was packaged into microparticles using an SWRI-patented spinning disk atomization technology. This packaging prevented leakage of elafin in acidic, aqueous solution. The oral elafin-Eudragit formulation was dissolved in mildly acidified (pH 5) water containing 0.5% hydroxypropyl methylcellulose (HPMC). PEGylated elafin was made by conjugation to methoxyl-PEG12 (New England Peptide Company). Control groups received either oral Eudragit-HPMC solution or subcutaneous PEG injection.

HFD-treated male mice [2] = assay: Leptin sensitivity test in HFD-treated male mice
Description: FIG. 35. Elafin-dependent serum exosome-mediated inhibition of hyperphagia and hyperglycemia was reversed by miR181b-5p and miR219-5p inhibitors. (A) Serum exosome transplantation to HFD-treated mice. The miRNA inhibitors were injected on the same day as exosome injection. (B) Change in fat mass. (C) No significant change in body weight among all groups over 7 days after miRNA inhibitor and exosome injection. (D) Fasting blood glucose levels 7 days after exosome and miRNA inhibitor injection. (E) Daily food consumption per mouse. (F) Serum leptin levels measured on day seven post-injection. (G, H) Leptin, Cd36, and adiponectin mRNA expression in the mesenteric fat and epididymal fat of HFD-treated mice with exosome and miRNA inhibitor injection. (I) Leptin sensitivity test: The RD/HFD-treated mice were injected with leptin for 3 days after elafin-LV injection. (J, K) Daily food consumption and fasting blood glucose levels at 24 h after the last leptin injection. Each group consists of 8 mice.
Leptin sensitivity tests were performed by injecting 1 μg/kg leptin intraperitoneally (#450-31, Peprotech) daily for 3 days. At the endpoint of the experiments, mice were fasted for 6 h and tested for fasting blood glucose and cholesterol levels with a drop of tail vein blood using Freestyle Lite blood glucose meter and test strips (Abbott Diabetes Care) and Accutrend Plus meter and test strips (Roche), respectively. The oral glucose tolerance test (OGTT) was performed by feeding D-glucose (1 g/kg) to fasted mice via oral gavage, and the blood glucose level was measured 2 h after oral glucose feeding. Blood glucose and cholesterol levels are presented as mg/dL. Measurements of fasting blood glucose levels, blood total cholesterol levels, food consumption, and fat/lean mass (EchoMRl) were performed as described in our previous report.
For inhibition of miRNAs, control (Y100199006), miR-181b-5p (YC10201288-FZA), and miR-219-5p (YC10201241-FZA) inhibitors (Qiagen) were dissolved in PBS. […]

TNBS-treated mice = assay: TNBS-associated colonic fibrosis in mice; conditions: TNBS-treated mice
Description: Eight-week-old male and female CD-1 mice (#022, Charles River Laboratories) were injected with 50pL TNBS solution (to induce colonic fibrosis) or 30% ethanol (vehicle) via enema weekly for five weeks. After the last TNBS injection, the mice were held for two additional weeks to develop colonic fibrosis. Some of the mice were injected with 5 μg/mouse of either control (PS100001) or elafin-expressing construct (RC203136) from
Origene via InvivoJetPEI transfection reagent (201-10G, Polyplus) intracolonically on the 9th day after the last TNBS injection or five days before the end of experiment.
Some of the mice received either a single intraperitoneal injection of 10 mg/kg anti-tumor necrosis factor-alpha (anti-TNFα) neutralizing antibody (6E0058, BioXCell) or oral antibiotic mixture in drinking water ad libitum from the 9th day after the last TNBS injection to the endpoint of the experiment. The antibiotics mixture contains kanamycin (0.4 mg/mL), gentamicin (0.035 mg/mL), colistin (850 U/mL), metronidazole (0.215 mg/mL), and vancomycin (0.045 mg/mL), which was routinely used by our laboratory for suppressing intestinal microbiota.
For PAR1/2 activation, some of the mice were injected with DMSO (50pL/mouse), 5 mg/kg PAR1 agonist TRAP-6, or 5 mg/kg PAR2 agonist SLIGKV-NH2 via enema on the 9th, 11th, and 13th days after the last TNBS injection.
For miRNA inhibition, some of the mice were injected with 5 mg/kg either control inhibitor or miR205-5p power inhibitor (Qiagen) […] via enema on the 9th, 11th, and 13th days after the last TNBS injection.
For Zeb1 manipulation, some mice received a single intraperitoneal injection (10^7 infectious units/mouse) of control lentivirus (PS100064V), Zeb1-overexpressing lentivirus (MR223095L2V), or Zeb1-shRNA lentivirus (TL513177V) from Origene, Inc. nine days after the last TNBS injection.
Dr. Xingguo Cheng produced the oral elafin-Eudragit-FS3OD formulation via a material transfer agreement (UCLA MTA2019-00000337) with the Southwest Research Institute (SWRI) in Texas. […] The mice were fed with either control-Eudragit or elafin-Eudragit in mildly acidified (pH 5) water containing 0.5% hydroxypropyl methylcellulose (HPMC) daily via oral gavage during the last five days of the experiment.
H&E and Masson Trichrome (MT) staining were performed as described previously. Microphotographs were recorded at multiple locations and scored by two investigators blindly. Intestinal injuries were scored (0-12). The severity of intestinal fibrosis was assessed by MT staining and scored (0-3). ZEB1 immunohistochemistry was performed using an anti-ZEB1 antibody (HPA027524, Sigma).
Total RNA was isolated by an RNeasy kit (#74104, Qiagen) and reverse transcribed into cDNA by a high-capacity cDNA reverse transcription kit (#4368813, ThermoFisher). PCR reactions were run with Taq Universal SYBR Green Supermix (1725120, Bio-Rad) and TaqMan real-time PCR assays (ThermoFisher) in a Bio-Rad CFX384 system. For the determination of miRNA expression, RNA was converted to cDNA using miRCURY LNA RT kit. PCR reactions were run with miRCURY LNA SYBR Green PCR kit and miRCURY LNA PCR assays (Qiagen). Relative mRNA/miRNA quantification was performed by comparing test groups and control groups after normalization with endogenous control genes. The fold changes are expressed as […]. […]
(§1) Overall disease activity (ODA) was calculated by % change of histology and fibrosis scores and colonic mRNA expression of fibrosis- and inflammation-related genes. […]

[3] = tested on: HFD-treated elafin-overexpressing mice; assay: Intraperitoneal IL-1β and IFNγ injection to HFD-treated elafin-overexpressing mice; conditions: for effect on elafin-mediated inhibition of fat mass and fasting blood glucose levels / effect on elafin-mediated inhibition of liver steatosis: mouse, in vivo
Description: FIG. 33. Circulating immune cells mediated the anti-obesity effects of elafin in HFD-treated male mice. (A) Circulating immune cell mRNA expression in the HFD-treated mice with and without lentiviral elafin overexpression. (B) Splenocyte transplantation to HFD-treated Rag−/− mice. (C) Physiological parameters of HFD-treated Rag−/− recipient mice after splenocyte transplantation. Transplantation of splenocytes from elafin-overexpressing donors caused reduced fat mass, body weight, and food consumption and increased leptin levels in the Rag−/− recipient mice. (D) Mesenteric fat and epididymal fat tissue mRNA expression in HFD- treated mice with and without lentiviral elafin overexpression. (E) Determination of the physiological effects of intraperitoneal IL-1β and IFNγ injection to HFD-treated elafin-expressing mice. IL-1β or IFNγ was injected on the same day as elafin-expressing lentivirus injection. (F) Daily food consumption, (G) serum leptin levels. (H) Change in body weight. (I) Change in fat mass. (J) Fasting blood glucose levels. Each group consists of 8 mice.
Some groups were injected with IL-1β protein 2.5 μg per mouse (#211-11B Peprotech) or IFNγ protein 5 μg per mouse (#315-05 Peprotech) intraperitoneally to increase circulating IL-1β or IFNγ levels.

Salmonella-infected mice = assay: Salmonella-mediated cecal fibrosis in mice; conditions: Salmonella-infected mice with lentiviral elafin overexpression
Description: Eight-week-old male and female 129Sv/J mice (#000691, Jackson Laboratories) were administered 20 mg streptomycin via oral gavage. Twenty-four hours later, the mice were orally infected with Salmonella typhimurium SL1344 strain 1×10^8 colony-forming units by oral gavage to induce cecal fibrosis.
Origene or miR205-5p-OFF lentivrus (mm35328) or miR205-5p-OE lentivirus (mm15214) from Applied Biological Materials on day 14. Some infected mice received oral antibiotics mixture in drinking water ad libitum from day 14 to day 21 to suppress intestinal microbiota. […]
H&E and Masson Trichrome (MT) staining were performed as described previously. Microphotographs were recorded at multiple locations and scored by two investigators blindly. Intestinal injuries were scored (0-12). The severity of intestinal fibrosis was assessed by MT staining and scored (0-3). […]
Total RNA was isolated by an RNeasy kit (#74104, Qiagen) and reverse transcribed into cDNA by a high-capacity cDNA reverse transcription kit (#4368813, ThermoFisher). […] Relative mRNA/miRNA quantification was performed by comparing test groups and control groups after normalization with endogenous control genes. The fold changes are expressed as 2^ΔΔCt. […]
as §1

PEG-Elafin: elafin conjugated to methoxyl-PEG12, for subcutaneous injection (AQEPVKGPVSTKPGSCPIILIRCAMLNPPNRCLKDTDCPGIKKCCEGSCGMACFVPQ; ends and bridges not checked; also: conjugated to methoxyl-PEG12, site not given here; UniProt P19957 61-117, looked up)
circulating IFNγ levels (HFD-treated male mice [1]): significantly reduced | circulating leptin levels (HFD-treated male mice [1]): significantly increased | fasting blood glucose levels (HFD-treated male mice [1]): significantly reduced | fat mass gain (HFD-treated male mice [1]): significantly reduced | food consumption (HFD-treated male mice [1]): significantly reduced | liver steatosis (HFD-treated male mice [1]): significantly reduced | serum elafin levels versus lentiviral elafin overexpression (HFD-treated male mice [1]; Elafin-Eudragit 10 mg/kg oral daily, PEG-elafin 3.25 mg/kg s.c. every 48 h): comparable

Leptin: leptin (#450-31, Peprotech) injected intraperitoneally
food consumption in HFD-treated elafin-overexpressing mice (HFD-treated male mice [2]; leptin 1 μg/kg intraperitoneally daily for 3 days): further reduced | decrease of fasting blood glucose in HFD-treated elafin-overexpressing mice (HFD-treated male mice [2]; leptin daily for 3 days): not affected

TRAP-6 [PAR1 agonist]
colonic injury and fibrosis (TNBS-treated mice): did not affect

IFNγ: IFNγ protein (Peprotech)
food consumption in elafin-overexpressing mice ([3]; IL-1β 2.5 μg or IFNγ 5 μg per mouse intraperitoneally): moderately increased | effect on elafin-mediated inhibition of fat mass and fasting blood glucose levels [3]: reversed | effect on elafin-mediated inhibition of liver steatosis [3]: reversed | effect on elafin-mediated decrease of food consumption and fasting blood glucose levels (HFD-treated male mice [2]; mouse, in vivo): reversed

CC[C@H](C)[C@H](NC(=O)[C@H](CC1CCCCC1)NC(=O)c1ccno1)C(=O)NCc1cccc(C(=O)N2CCC(CN)CC2)c1 [GB110, reference compound]
effect on elafin-mediated inhibition of cecal fibrosis / collagen deposition and fibrogenic mRNA expression (Salmonella-infected mice): reversed

IL-1β: IL-1β protein (Peprotech)
effect on elafin-mediated inhibition of fat mass and fasting blood glucose levels [3]: reversed | effect on elafin-mediated inhibition of liver steatosis [3]: reversed

Source: patent publication US20230405078A1, “DETECTION AND TREATMENT OF INTESTINAL FIBROSIS” (THE REGENTS OF THE UNIVERSITY OF CALIFORNIA, priority 2020, published 2023)
